Reference: US6331642A, “Vitamin D3 analogs” (Hoffmann-La Roche Inc., priority 2000, dated 2001)

Assays:
[1] = system: ventral prostate; experiment: Antiandrogenic activity in castrated testosterone stimulated hamsters, ventral prostate; assay type: in vivo, male Syrian hamsters; settings: testosterone 20 μg s.c. daily, 14 days; vehicle 12 ± 1
Experimental: (§1) 1,25(OH)2 -16-ene-5,6-trans D3 was evaluated for antiandrogenic activity in castrated, testosterone stimulated male Syrian hamsters.
(§2) […] Both compounds were administered in a vehicle of 0.2 ml sesame oil each. Necropsy was performed on day 15. The prostate and seminal vesicles were removed, blotted and weighed. Data were analyzed for statistical significance using the Student's t-test and are expressed as percent inhibition of stimulated response.

[2] = system: seminal vesicles; experiment: Antiandrogenic activity in castrated testosterone stimulated hamsters, seminal vesicles; assay type: in vivo, male Syrian hamsters; settings: testosterone 20 μg s.c. daily, 14 days; vehicle 36 ± 3; mg ± SEM
Experimental: as §1, §2

## CCC(=O)O[C@H]1CC[C@H]2[C@@H]3CCC4=CC(=O)CC[C@]4(C)[C@H]3CC[C@]12C [Testosterone, testosterone propionate, reference compound]
[1]
  Ventral prostate weight: 43 ± 5 mg
[2]
  Seminal vesicles weight: 105 ± 6 mg
